Measured values published in ChEMBL document CHEMBL5653615 (J Biol Chem, 2013).

Target: Ribosomal protein S6 kinase alpha-5 (Homo sapiens) (UniProt O75582)
Assay: Inhibition of human RPS6KA5 at 18.6 nM by HotSpot assay relative to control

Sequence of Ribosomal protein S6 kinase alpha-5 (Homo sapiens) (O75582 whole entry, looked up): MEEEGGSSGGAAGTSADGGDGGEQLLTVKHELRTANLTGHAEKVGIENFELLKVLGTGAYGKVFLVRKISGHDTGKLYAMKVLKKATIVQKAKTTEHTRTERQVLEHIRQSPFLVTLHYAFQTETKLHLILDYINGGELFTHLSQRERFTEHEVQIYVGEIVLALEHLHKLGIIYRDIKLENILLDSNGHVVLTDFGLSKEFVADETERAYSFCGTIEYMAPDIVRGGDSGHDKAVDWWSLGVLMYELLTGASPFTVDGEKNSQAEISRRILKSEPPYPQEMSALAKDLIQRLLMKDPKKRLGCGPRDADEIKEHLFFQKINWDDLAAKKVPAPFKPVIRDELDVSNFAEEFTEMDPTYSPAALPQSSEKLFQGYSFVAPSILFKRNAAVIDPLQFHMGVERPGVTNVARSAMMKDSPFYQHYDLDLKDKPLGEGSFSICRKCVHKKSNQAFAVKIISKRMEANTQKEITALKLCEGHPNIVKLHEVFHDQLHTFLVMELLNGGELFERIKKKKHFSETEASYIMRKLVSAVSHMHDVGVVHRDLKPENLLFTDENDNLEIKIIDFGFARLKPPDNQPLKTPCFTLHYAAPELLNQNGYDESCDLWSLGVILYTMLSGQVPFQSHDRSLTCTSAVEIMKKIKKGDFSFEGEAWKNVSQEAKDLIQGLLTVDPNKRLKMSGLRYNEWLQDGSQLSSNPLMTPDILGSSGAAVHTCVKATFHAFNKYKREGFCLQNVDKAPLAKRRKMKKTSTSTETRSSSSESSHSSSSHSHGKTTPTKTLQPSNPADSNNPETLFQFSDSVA

- inhibition: -5.75%
Compound: C[C@]1(O)C[C@@H](c2nc(-c3ccc4ccc(-c5ccccc5)nc4c3)c3c(N)nccn32)C1
